The target in one test is T1, NRP1 (Homo sapiens, UniProt O14786).
T1 construct: mutations were introduced into the TM domain of a full length NRP1; expressed in transfected cells; host or cells: COS-1 cells, pBK-CMV plasmid (cDNA provided by Pr. Puschel)
In words: AP-Sema3A binding to NRP1-expressing COS cells (optical density per cell). To be noted: peptide 10^−9 M, 1 hour pre-incubation. The method, then: NRP1 expressing COS cells were incubated with AP-Sema3A, a fusion protein of Sema3A and the secreted alkaline phosphatase (BAGNARD et al., 1998).
Wild-type COS cells or NRP1-expressing COS cells (COS-NRP1) were cultured on 12-wells plates on poly-L-lysine-coated glass coverslips (0.005 mg/ml). After one-hour incubation with pTM-NRP1 or pTM-NRP1^mut (10^−9M) in serum-free medium at 37° C., the culture medium was replaced by conditioned medium containing alkaline phosphatase-coupled Sema3A (AP-Sema3A; BAGNARD et al., 1998) obtained from AP-Sema3A stably expressing HEK cells for 90 mn. Conditioned medium without semaphorin served as a control (obtained from non-transfected HEK). Cells were washed three times with PBS and fixed in 4% formaldehyde before transfer in a new dish. After three washes in PBS, the plate was warmed for 50 mn at 65° C. Cells were subsequently incubated with 1 ml of alkaline phosphatase substrate (NBT/BCIP, SIGMA) in the dark. After 45 mn, substrate was removed and glass coverslips were rinsed. Pictures were acquired with a conventional microscope and analyzed with AxioVision LE Zeiss software. For each condition tested, about 60 cells were analyzed to determine binding levels as a function of optical density. Statistical analysis was performed by using a Student's t test.

The next test deals with PC12 cells. In words: PC12 cell differentiation / neuritic outgrowth assay. The settings on record: peptide 10^−9 M. It counts as cell-based. On the procedure: To further investigate the biochemical consequence of the TM-NRP1 in terms of receptor complex formation, we analyzed the formation of complexes in the PC12 neuronal cells model.
PC12 (ATCC: CRL-1721) were grown in D-MEM medium with 4.5 g of glucose/L (GIBCO), 5% FVS, 10% horse serum, glutamine 580 mg/L and antibiotics. For functional assays, PC12 were cultured on 12-wells plates with previously poly-L-lysine-coated glass coverslips. PC12 cells were incubated 1 h with or without pTM-NRP1 peptide (10^−9M) at 37° C. Culture medium was removed and replaced by NGF-containing (100 ng/mL; GIBCO) serum free medium or by conditioned medium obtained from HEK293 cells stably expressing Sema3A or non-transfected cells (control, see BAGNARD et al., 1998 for details) for 12 h at 37° C.
Cells were fixed with 2% formaldehyde for 30 mn followed by 15 mn in 4% formaldehyde. For each condition tested, around 400 cells were analyzed to evaluate neuritic outgrowth (Statistical analyses were made by using χ^2 test).

For another test, the target named is T2, NRP1 receptor complex (Rattus norvegicus, UniProt Q9QWJ9).
T2 construct: C6 cells expressing NRP1 and Plexin-A1 were incubated or not with the pTM-NRP1 peptide; endogenous in cells; host or cells: rat C6 glioma cells
As to the kind of experiment: Formation of NRP1 receptor complexes, sucrose density gradient sedimentation and western blot. It counts as cell-based. To be noted: C6 cells expressing NRP1 and Plexin-A1, peptide 10^−9 M for 1 h. On the procedure:
To further investigate the role of the transmembrane domain of the NRP1 receptor in the formation of the NRP1 receptor complex, the formation of NRP1 complexes has been determined on C6 cells expressing NRP1 and plexin-A1 in the presence or not of the transmembrane domain peptide of NRP1 (pTM-NRP1 peptide) and of the ligand Sema3A.
C6 cells expressing NRP1 and Plexin-A1 were incubated or not with the pTM-NRP1 peptide (10^−9 M) for 1 h. The culture medium has been then replaced of HER cells stably transfected or not with a construction expressing Sema 3A. Confluent C6 have been harvested with 10 mM EDTA and centrifuged. The pellet has been washed in PBS and then diluted in lysis buffer (Tris-HCL/NaCl; 50/150; pH 8.0) with 0.1% SDS, 1 mM EDTA, 1% NP-40, 0.5% DOC, 2 mM vanadate and proteases inhibitors without SDS (PIERCE). After solubilization for 1 h at 4° C., protein amount is estimated by bicinchoninic acid method (BCA Protein Assay, PIERCE).
Sucrose density gradient sedimentation experiments were based on a step gradient containing 25%, 17%, 10% and 3% sucrose. […]
The membrane has been then incubated 2 hours with polyclonal anti-NRP1 at a 1:1000 dilution (ONCOGENE). […] Immunoreactivity has been then detected with an enhanced chemoluminescence western blot detection system (PIERCE) according to the manufacturer's instructions. […]
In general terms: A western blot detects proteins with antibodies after separation by electrophoresis.

Test [1] relates to VEGF165 signalling in C6 cells. In words: VEGF165-induced migration of C6 tumour cell aggregates in 3D matrix (plasma clot). It is filed as cell-based. To be noted: VEGF165 50 ng/ml, peptide 10^−8 M. On the procedure:
NRP1 is a receptor of VEGF (NEUFELD et al., Adv. Exp. Med. Biol., vol. 515, p: 81-90, 2002). We therefore verified that pTM-NRP1 can antagonize VEGF signalling in C6 cells. To this end, C6 tumour cell aggregates prepared as previously described (see BAGNARD et al., 1998; and NASARRE et al., Neoplasia, vol. 7, p: 180-189, 2005) were grown in the 3D matrix (plasma clot) and treated with VEGF165.

Here are results for one sequence from US8956622B2, “Peptidic antagonists of class III semaphorins/neuropilins complexes” (INSERM—Institut National de la Sante et de la Recherche …, priority 2005, dated 2015).

T1 sequence (O14786 22-923): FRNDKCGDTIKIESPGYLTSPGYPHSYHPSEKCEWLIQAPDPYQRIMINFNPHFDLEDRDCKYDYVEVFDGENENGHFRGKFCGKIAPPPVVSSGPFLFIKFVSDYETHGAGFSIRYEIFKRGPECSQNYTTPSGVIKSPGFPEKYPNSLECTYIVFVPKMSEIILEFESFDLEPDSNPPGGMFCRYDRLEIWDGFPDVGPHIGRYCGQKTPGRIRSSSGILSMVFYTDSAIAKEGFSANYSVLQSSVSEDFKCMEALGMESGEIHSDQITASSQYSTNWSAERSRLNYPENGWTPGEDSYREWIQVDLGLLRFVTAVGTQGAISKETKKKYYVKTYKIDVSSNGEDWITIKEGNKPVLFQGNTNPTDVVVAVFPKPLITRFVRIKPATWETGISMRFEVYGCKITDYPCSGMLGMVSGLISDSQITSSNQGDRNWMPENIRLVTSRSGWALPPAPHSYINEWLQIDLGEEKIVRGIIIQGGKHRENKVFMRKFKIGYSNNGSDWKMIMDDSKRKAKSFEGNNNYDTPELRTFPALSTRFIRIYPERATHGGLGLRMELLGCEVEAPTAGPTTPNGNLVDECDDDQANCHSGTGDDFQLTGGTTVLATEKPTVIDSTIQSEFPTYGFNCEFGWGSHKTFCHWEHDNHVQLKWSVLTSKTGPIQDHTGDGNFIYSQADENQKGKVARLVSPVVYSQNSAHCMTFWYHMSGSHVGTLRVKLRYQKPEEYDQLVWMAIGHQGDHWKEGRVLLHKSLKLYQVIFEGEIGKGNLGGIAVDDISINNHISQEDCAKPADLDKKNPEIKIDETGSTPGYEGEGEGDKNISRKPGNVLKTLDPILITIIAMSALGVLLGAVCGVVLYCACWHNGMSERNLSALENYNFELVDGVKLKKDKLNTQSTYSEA

Regarding ILITIIAMSALGVLLGAVCGVVL [pTM-NRP1], the “binding of AP-Sema3A to NRP1-expressing COS cells” value at NRP1 was “significantly reduced”. The “NGF effect on PC12 cell differentiation” value with PC12 cells (NGF 100 ng/mL 12 h) was “preserved”. In the test on PC12 cells (Sema3A conditioned medium 12 h), the “Sema3A induced neurite growth promotion” value was “significantly reduced”. In addition, the “oligomerization of NRP1 in the presence of Sema 3A” value at NRP1 receptor complex is “inhibited”. The “VEGF165-dependent C6 cells migration out of aggregates” value in test [1] is recorded as “suppressed”.
